Assay results: ChEMBL document CHEMBL1201862, “PubChem BioAssay data set” (2004)
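These data come from cells grown in 96-well plates and exposed to compound for 48 hours at five concentrations. At the GI50, growth is halved.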 Calls of active or inactive are those of the source. Rule as the data show it: active = GI50 up to about 1.1 µM and inactive = higher.

What was measured:
Experiment in all cases: growth of human tumour cells (NCI), 48 h
NCI-H226 = test system: NCI-H226
SN12C = test system: SN12C
Malme-3M = test system: Malme-3M
K562 = test system: K562
COLO 205 = test system: COLO 205
OVCAR-5 = test system: OVCAR-5
UACC-257 = test system: UACC-257
SNB-75 = test system: SNB-75
TK-10 = test system: TK-10
Hs-578T = test system: Hs-578T
HT-29 = test system: HT-29
KM12 = test system: KM12
HCT-116 = test system: HCT-116
HCC 2998 = test system: HCC 2998
NCI/ADR-RES = test system: NCI/ADR-RES
786-0 = test system: 786-0
U-251 = test system: U-251
IGROV-1 = test system: IGROV-1
MDA-MB-435 = test system: MDA-MB-435
SF-539 = test system: SF-539

Structure (SMILES)	GI50 (NCI-H226)	GI50 (SN12C)	GI50 (Malme-3M)	GI50 (K562)	GI50 (COLO 205)	GI50 (OVCAR-5)	GI50 (UACC-257)	GI50 (SNB-75)	GI50 (TK-10)	GI50 (Hs-578T)	GI50 (HT-29)	GI50 (KM12)	GI50 (HCT-116)	GI50 (HCC 2998)	GI50 (NCI/ADR-RES)	GI50 (786-0)	GI50 (U-251)	GI50 (IGROV-1)	GI50 (MDA-MB-435)	GI50 (SF-539)
CC(NC(=O)c1ccc(Cl)c(Cl)c1)c1ccc(-c2ccccc2)cc1 (stereo not given)	31.3 µM (inactive)	52.2 µM (inactive)	21.5 µM (inactive)	> 100 µM (inactive)	> 100 µM (inactive)	44.9 µM (inactive)	76.2 µM (inactive)	15.8 µM (inactive)	29 µM (inactive)	27 µM (inactive)	71.6 µM (inactive)	57.7 µM (inactive)	59.3 µM (inactive)	43.1 µM (inactive)	54.8 µM (inactive)	22.5 µM (inactive)	31.7 µM (inactive)	32.8 µM (inactive)	69.5 µM (inactive)	19.3 µM (inactive)
O=C(O)CC1OCC=C2CN3CCC45C6=CC(=O)C(O)=C([N+](=O)[O-])C6=NC4C1C2CC35 (stereo not given)	> 100 µM (inactive)	> 100 µM (inactive)	> 100 µM (inactive)	92.3 µM (inactive)	> 100 µM (inactive)	> 100 µM (inactive)	> 100 µM (inactive)	> 100 µM (inactive)	> 100 µM (inactive)	> 100 µM (inactive)	> 100 µM (inactive)	> 100 µM (inactive)	> 100 µM (inactive)	> 100 µM (inactive)	> 100 µM (inactive)	> 100 µM (inactive)	> 100 µM (inactive)	> 100 µM (inactive)	17.2 µM (inactive)	> 100 µM (inactive)
COc1ccc2nc3cc([N+](=O)[O-])ccc3c(NNc3ccc([N+](=O)[O-])cc3)c2c1	2.36 µM (inactive)	31.5 µM (inactive)	30.1 µM (inactive)	7.19 µM (inactive)	17.2 µM (inactive)	3.91 µM (inactive)	1.83 µM (inactive)	67.9 µM (inactive)	2.46 µM (inactive)	55.3 µM (inactive)	7.46 µM (inactive)	24.5 µM (inactive)	5.69 µM (inactive)	11.1 µM (inactive)	61.8 µM (inactive)	36.9 µM (inactive)	20.8 µM (inactive)	7.96 µM (inactive)	31.6 µM (inactive)	45.6 µM (inactive)
Clc1ccc(Cc2nc3cc4ccccc4cc3[nH]2)cc1Cl	25.2 µM (inactive)	24 µM (inactive)	16 µM (inactive)	6.15 µM (inactive)	18.5 µM (inactive)	32.5 µM (inactive)	18.1 µM (inactive)	17.3 µM (inactive)	19.4 µM (inactive)	21.3 µM (inactive)	10.2 µM (inactive)	16.4 µM (inactive)	20.1 µM (inactive)	18.5 µM (inactive)	28.7 µM (inactive)	27 µM (inactive)	15.5 µM (inactive)	3.01 µM (inactive)	15 µM (inactive)	15.5 µM (inactive)
COc1ccc(C2=C(N)c3c(OC)cccc3C2=O)cc1	> 100 µM (inactive)	> 100 µM (inactive)	> 100 µM (inactive)	> 100 µM (inactive)	> 100 µM (inactive)	> 100 µM (inactive)	> 10 µM (inactive)	> 100 µM (inactive)	> 10 µM (inactive)	61.4 µM (inactive)	> 100 µM (inactive)	> 100 µM (inactive)	> 100 µM (inactive)	> 100 µM (inactive)	> 100 µM (inactive)	85.1 µM (inactive)	64.9 µM (inactive)	60.3 µM (inactive)	> 100 µM (inactive)	15 µM (inactive)
O=C(O)c1ccc(C(=O)O)c(C(=O)Nc2ccc3c(c2)C(=O)c2ccccc2-3)c1	> 100 µM (inactive)	> 100 µM (inactive)	> 100 µM (inactive)	> 100 µM (inactive)	> 100 µM (inactive)	> 100 µM (inactive)	> 100 µM (inactive)	> 100 µM (inactive)	> 100 µM (inactive)	> 100 µM (inactive)	> 100 µM (inactive)	> 100 µM (inactive)	> 100 µM (inactive)	> 100 µM (inactive)	> 100 µM (inactive)	> 100 µM (inactive)	> 100 µM (inactive)	> 100 µM (inactive)	> 100 µM (inactive)	> 100 µM (inactive)
O=C1C(c2cnc3ccccc3n2)=C(O)c2ccccc21	> 100 µM (inactive)	> 77.3 µM (inactive)	> 100 µM (inactive)	> 86.9 µM (inactive)	43.2 µM (inactive)	> 70.1 µM (inactive)	> 71 µM (inactive)	22 µM (inactive)	18.3 µM (inactive)	> 57.7 µM (inactive)	> 74.1 µM (inactive)	7.08 µM (inactive)	> 95.7 µM (inactive)	71.8 µM (inactive)	> 100 µM (inactive)	84.3 µM (inactive)	58.6 µM (inactive)	> 83 µM (inactive)	4.19 µM (inactive)	> 100 µM (inactive)
[N-]=[N+]=NC1=C(N=[N+]=[N-])c2cccc3cccc(c23)C1=O	> 100 µM (inactive)	> 100 µM (inactive)	> 100 µM (inactive)	> 100 µM (inactive)	> 100 µM (inactive)	> 100 µM (inactive)	> 100 µM (inactive)	> 100 µM (inactive)	> 100 µM (inactive)	> 100 µM (inactive)	76.7 µM (inactive)	76.2 µM (inactive)	> 100 µM (inactive)	> 100 µM (inactive)	> 100 µM (inactive)	> 100 µM (inactive)	97.7 µM (inactive)	68.2 µM (inactive)	> 100 µM (inactive)	> 100 µM (inactive)
CCN(CC)CCC(=O)c1ccc(Sc2ccc(F)cc2)cc1	16 µM (inactive)	21.7 µM (inactive)	16 µM (inactive)	52.8 µM (inactive)	21.1 µM (inactive)	19.7 µM (inactive)	15.7 µM (inactive)	17.5 µM (inactive)	14.4 µM (inactive)	15.8 µM (inactive)	21.8 µM (inactive)	15.7 µM (inactive)	18.2 µM (inactive)	32.6 µM (inactive)	24.3 µM (inactive)	10.8 µM (inactive)	16 µM (inactive)	18.2 µM (inactive)	14.9 µM (inactive)	17.7 µM (inactive)
CCO/C=N/C1=C(C#N)SC2=N/C(=C\c3ccccc3)C(=O)N21	97.3 µM (inactive)	> 100 µM (inactive)	> 100 µM (inactive)	41.9 µM (inactive)	> 100 µM (inactive)	> 100 µM (inactive)	> 100 µM (inactive)	> 81.3 µM (inactive)	> 89.1 µM (inactive)	> 100 µM (inactive)	> 100 µM (inactive)	> 100 µM (inactive)	> 100 µM (inactive)	> 100 µM (inactive)	> 100 µM (inactive)	> 100 µM (inactive)	> 100 µM (inactive)	> 100 µM (inactive)	> 100 µM (inactive)	> 100 µM (inactive)
CC(C)(C)OC(=O)CC(NC(=O)OC(C)(C)C)C(=O)N[C@@H]1CCCC[C@H]1C(=O)OCc1ccccc1 (stereo not given in full)	26.4 µM (inactive)	18.2 µM (inactive)	33.7 µM (inactive)	18.4 µM (inactive)	19.3 µM (inactive)	26.2 µM (inactive)	30.2 µM (inactive)	23.1 µM (inactive)	17.8 µM (inactive)	15.7 µM (inactive)	17.2 µM (inactive)	30.1 µM (inactive)	17.5 µM (inactive)	20.6 µM (inactive)	33.3 µM (inactive)	70.6 µM (inactive)	19.5 µM (inactive)	37 µM (inactive)	29.6 µM (inactive)	24.5 µM (inactive)
COc1ccc(C[C@H]2COC(=O)[C@@H]2Cc2cc(OC)c(OC)c(OC)c2)cc1OC	> 34.4 µM (inactive)	> 100 µM (inactive)	> 100 µM (inactive)	77.8 µM (inactive)	> 100 µM (inactive)	> 100 µM (inactive)	> 75 µM (inactive)	> 67.8 µM (inactive)	> 100 µM (inactive)	38 µM (inactive)	> 100 µM (inactive)	> 70.3 µM (inactive)	> 87.9 µM (inactive)	> 81.7 µM (inactive)	41.1 µM (inactive)	> 100 µM (inactive)	> 100 µM (inactive)	> 94.6 µM (inactive)	> 81.1 µM (inactive)	> 100 µM (inactive)
CC(C)[Si](OC1=C(C(=O)Nc2ccccc2Cl)CCCCC1)(C(C)C)C(C)C	> 100 µM (inactive)	> 100 µM (inactive)	> 100 µM (inactive)	> 100 µM (inactive)	> 100 µM (inactive)	97.9 µM (inactive)	> 100 µM (inactive)	> 78.2 µM (inactive)	> 100 µM (inactive)	> 100 µM (inactive)	> 100 µM (inactive)	> 100 µM (inactive)	> 100 µM (inactive)	> 100 µM (inactive)	> 100 µM (inactive)	> 100 µM (inactive)	> 100 µM (inactive)	> 100 µM (inactive)	> 100 µM (inactive)	> 100 µM (inactive)
Cc1ccnc2nc(-c3cccc4ccccc34)cc(O)c12	0.0336 µM (active)	0.127 µM (active)	0.000708 µM (active)	0.000483 µM (active)	0.0177 µM (active)	0.0516 µM (active)	23.1 µM (inactive)	0.00255 µM (active)	0.454 µM (active)	0.0141 µM (active)	0.00296 µM (active)	0.0183 µM (active)	0.00542 µM (active)	0.0573 µM (active)	0.00237 µM (active)	0.011 µM (active)	0.00445 µM (active)	0.043 µM (active)	0.0001 µM (active)	0.0112 µM (active)
